Data: the supplement of paper PMC10627819

How the values were obtained:
S. aureus Newman = test: Bliss interaction score (quartile over a dose matrix) (fitness difference); higher = more antagonism (negative = synergy)
Method in brief: (§1)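 The Bliss score is observed minus expected fitness, where expected fitness is the product of the single-drug fitness values inferred from the combination data. Fitness is the OD595 at the onset of stationary phase over the plate's robust no-drug mean, capped at 1. Scores are summarised by quartiles over technical, biological and donor/recipient replicates.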

S. aureus DSM 20231 = test: as above
Method in brief: as §1

B. subtilis 168 [1] = test: as above
Method in brief: as §1

S. pneumoniae D39V = test: as above
Method in brief: as §1

B. subtilis 168 [2] = test: fitness (endpoint OD595 vs no drug) (fraction); higher = more growth
Method in brief: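 With the first reading as background, OD595 was measured every 30 min for 14 h in 384-well plates kept at 37 °C and inoculated at OD595 0.01. TSB, LB Lennox or CY was the medium. Fitness is the optical density at the transition into stationary phase divided by the robust mean of no-drug control wells, with a cap of 1.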
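For Bliss interaction score (quartile over a dose matrix) in this document: first quartile when negative (synergy) and third quartile when positive (antagonism).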
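For fitness (endpoint OD595 vs no drug) in this document: OD595 on entry to stationary phase over no-drug wells; at most 1.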

CC[C@H]1OC(=O)[C@H](C)[C@@H](O[C@H]2C[C@@](C)(OC)[C@@H](O)[C@H](C)O2)[C@H](C)[C@@H](O[C@@H]2O[C@H](C)C[C@H](N(C)C)[C@H]2O)[C@](C)(O)C[C@@H](C)CN(C)[C@H](C)[C@@H](O)[C@]1(C)O [Azithromycin] + CCC(C)C1C(=O)NC(=C)C(=O)NC(C(=O)NC(CSCC(C(=O)N1)NC(=O)/C(=C/C)/NC(=O)C(C(C)CC)N)C(=O)NC2C(SCC(NC(=O)CNC(=O)C3CCCN3C2=O)C(=O)NC(CCCCN)C(=O)NC4C(SCC(NC(=O)CNC(=O)C(NC(=O)C(NC(=O)C(NC(=O)CNC4=O)C)CC(C)C)CCSC)C(=O)NC(CC(=O)N)C(=O)NC(CCSC)C(=O)NC(CCCCN)C(=O)NC5C(SCC6C(=O)NC(C(=O)NC(CSC(C(C(=O)N6)NC(=O)C(NC5=O)C)C)C(=O)NC(CO)C(=O)NC(C(C)CC)C(=O)NC(CC7=CN=CN7)C(=O)NC(C(C)C)C(=O)NC(=C)C(=O)NC(CCCCN)C(=O)O)CC8=CN=CN8)C)C)C)CC(C)C [Nisin]
main component drawn
Details	Bliss interaction score
B. subtilis 168 [1]	0.0397
S. aureus DSM 20231	-0.195
S. aureus Newman	-0.113
S. pneumoniae D39V	-0.0414

fitness, B. subtilis 168 [2], main component drawn
Details	partner 0.5 µg/mL	partner 1 µg/mL	partner 2 µg/mL
first compound 0.25 µg/mL	0.904	0.837	0.724
first compound 0.5 µg/mL	0.862	0.805	0.636

fitness, B. subtilis 168 [2], one replicate, main component drawn
Details	partner 1.25 µg/mL	partner 1.6 µg/mL	partner 2.5 µg/mL	partner 3.2 µg/mL	partner 4 µg/mL	partner 5 µg/mL	partner 6.4 µg/mL	partner 8 µg/mL	partner 16 µg/mL
first compound 0.25 µg/mL	–	–	–	–	0.0321	–	–	0.0145	0.0145
first compound 0.5 µg/mL	0.889	0.611	0.0285	0.028	0.0372	0.0256	0.0317	0.0317	0.0189
first compound 1 µg/mL	0.844	0.038	0.415	0.0169	0.0347	0.0235	0.0188	0.0359	0.0271
first compound 2 µg/mL	0.358	0.023	0.0636	0.0193	–	0.0032	0.0113	–	–

CC[C@H]1OC(=O)[C@H](C)[C@@H](O[C@H]2C[C@@](C)(OC)[C@@H](O)[C@H](C)O2)[C@H](C)[C@@H](O[C@@H]2O[C@H](C)C[C@H](N(C)C)[C@H]2O)[C@](C)(O)C[C@@H](C)CN(C)[C@H](C)[C@@H](O)[C@]1(C)O [Azithromycin] + CN(C)C(=O)C(CCN1CCC(O)(c2ccc(Cl)cc2)CC1)(c1ccccc1)c1ccccc1 [Loperamide]
Details	Bliss interaction score
B. subtilis 168 [1]	0.137
S. aureus DSM 20231	0.344
S. aureus Newman	0.101
S. pneumoniae D39V	0.131

Details	fitness
B. subtilis 168 [2], first compound 1 µg/mL, partner 50 µg/mL	0.041

CC[C@H]1OC(=O)[C@H](C)[C@@H](O[C@H]2C[C@@](C)(OC)[C@@H](O)[C@H](C)O2)[C@H](C)[C@@H](O[C@@H]2O[C@H](C)C[C@H](N(C)C)[C@H]2O)[C@](C)(O)C[C@@H](C)CN(C)[C@H](C)[C@@H](O)[C@]1(C)O [Azithromycin] + CO[C@@H]1[C@@H](OC(N)=O)[C@@H](O)[C@H](Oc2ccc3c(O)c(NC(=O)c4ccc(O)c(CC=C(C)C)c4)c(=O)oc3c2C)OC1(C)C [Novobiocin]
Details	Bliss interaction score
B. subtilis 168 [1]	0.0746
S. aureus DSM 20231	0.0496
S. aureus Newman	0.157
S. pneumoniae D39V	-0.0647

fitness, B. subtilis 168 [2]
Details	partner 0.0125 µg/mL	partner 0.025 µg/mL	partner 0.05 µg/mL	partner 0.1 µg/mL	partner 0.2 µg/mL
first compound 0.25 µg/mL	0.897	0.888	0.894	0.954	0.931
first compound 0.5 µg/mL	0.867	0.814	0.868	0.865	0.878
first compound 1 µg/mL	0.642	0.63	–	–	–

fitness, B. subtilis 168 [2], one replicate
Details	first compound 0.5 µg/mL	first compound 1 µg/mL	first compound 2 µg/mL
partner 0.125 µg/mL	0.772	0.765	0.347
partner 0.25 µg/mL	0.781	0.597	0.167
partner 0.5 µg/mL	0.507	0.473	0.0776

CC[C@H]1OC(=O)[C@H](C)[C@@H](O[C@H]2C[C@@](C)(OC)[C@@H](O)[C@H](C)O2)[C@H](C)[C@@H](O[C@@H]2O[C@H](C)C[C@H](N(C)C)[C@H]2O)[C@](C)(O)C[C@@H](C)CN(C)[C@H](C)[C@@H](O)[C@]1(C)O [Azithromycin] + C[C@H]1COc2c(N3CCN(C)CC3)c(F)cc3c(=O)c(C(=O)O)cn1c23 [Levofloxacin]
Details	Bliss interaction score
B. subtilis 168 [1]	0.0413
S. aureus DSM 20231	0.0911
S. aureus Newman	0.0787
S. pneumoniae D39V	0.0528

fitness, B. subtilis 168 [2]
Details	partner 0.002 µg/mL	partner 0.0039 µg/mL	partner 0.0078 µg/mL	partner 0.0312 µg/mL	partner 0.0625 µg/mL	partner 0.125 µg/mL
first compound 0.25 µg/mL	0.96	0.945	0.969	0.0317	0.0311	0.0281
first compound 0.5 µg/mL	0.848	0.808	0.862	0.0211	0.0396	0.0302
first compound 1 µg/mL	–	–	–	0.0198	0.0226	0.0241

fitness, B. subtilis 168 [2], one replicate
Details	first compound 0.5 µg/mL	first compound 1 µg/mL	first compound 2 µg/mL
partner 0.001 µg/mL	0.925	0.906	0.209
partner 0.002 µg/mL	–	–	0.029
partner 0.0039 µg/mL	–	–	0.0299

CC[C@H]1OC(=O)[C@H](C)[C@@H](O[C@H]2C[C@@](C)(OC)[C@@H](O)[C@H](C)O2)[C@H](C)[C@@H](O[C@@H]2O[C@H](C)C[C@H](N(C)C)[C@H]2O)[C@](C)(O)C[C@@H](C)CN(C)[C@H](C)[C@@H](O)[C@]1(C)O [Azithromycin] + C[C@H]1c2cccc(O)c2C(=O)C2=C(O)[C@]3(O)C(=O)C(C(N)=O)=C(O)[C@@H](N(C)C)[C@@H]3[C@@H](O)[C@@H]21 [Doxycycline]
Details	Bliss interaction score
B. subtilis 168 [1]	-0.362
S. aureus DSM 20231	-0.261
S. aureus Newman	-0.153
S. pneumoniae D39V	-0.139

Details	fitness
B. subtilis 168 [2], first compound 0.25 µg/mL, partner 0.02 µg/mL	0.816

B. subtilis 168 [2], first compound 2 µg/mL, one replicate
Details	fitness
partner 0.02 µg/mL	0.0856
partner 0.04 µg/mL	0.0565
partner 0.08 µg/mL	0.115
